Measurements: US20020018997A1, “Biomolecular toxicity assay” (priority 2000, published 2002)

Tests used:
[1] = tested on: Beef Heart Mitochondria; conditions: cited from earlier work
[2] = tested on: Fish; conditions: at 96 hr; cited from earlier work
[3] = tested on: actin-cofilin complex; test: Native PAGE gel analysis of actin-cofilin complex; format: binding; conditions: for Effective (E50) concentration, disappearance of the actin-cofilin band: native PAGE gels, 25 μM actin-cofilin complex, metal mass without counter ions
Description: Four heavy metal ions (Cd, Cu, Hg and Zn) were examined over the concentration range 1-1000 μg L^−1.
Combinations of actin, cofilin and DNaseI were mixed at equimolar concentrations (˜20-25 μm) in a Eppendorf tube and incubated for 15 min at 22° C. Actin, cofilin, DNaseI and their complexes were then separated on a 10% w/v native gel. […] Instead, the rate of migration is determined by the ratio of charge to volume. Actin (MT 43 kDa) has a net negative charge.

[4] = tested on: Sub-mitochondrial Particle (SMP); conditions: cited from earlier work
[5] = tested on: Photobacterium phosphoreum; conditions: cited from earlier work
[6] = tested on: DNA/EtBr complex; test: DNA/EtBr fluorescence emission in solution; format: binding; conditions: 5 μg/ml DNA, 2 μg/ml EtBr
Description: The fluorescence emission of DNA-dye ligands such as ethidium bromide (EtBr) are examined spectroscopically in solution.
Changes in fluorescence intensity were noticeable at 2 μM.

Row | Compound | Effective (E50) concentration, BHM [1] [µg/L] | Effective (E50) concentration, Fish [2] [µg/L] | Effective (E50) concentration, disappearance of the actin-cofilin band [3] [µg/L] | Effective (E50) concentration, SMP [4] [µg/L] | Microtox mean lethal concentration [5] [µg/L] | Density of the actin-cofilin complex ([3]; 250-2500 μg L^−1) | Concentration at which the actin-cofilin complex is first noticeably affected ([3]; native gel) | Concentration at which changes in fluorescence intensity were noticeable [6] [µM] | Concentration range of concentration-dependent quenching of fluorescent signal ([6]; excitation 520 nm) [µM]
1 | [Cd+2] [Cd^2+] | 158 | 630 | 800 to 1200 | 520 | 41400 |  |  |  | 
2 | [Cl-].[Cl-].[Zn+2] [Zn^2+, ZnCl2] | 80 | 2990 | 900 to 1000 | 1700 | 33000 | decreased the density of the actin-cofilin complex |  |  | 
3 | [Cu+2] [Cu^2+] | 93 | 530 | 400 to 600 | 300 | 9300 |  | approximately 200 μg L^−1 |  | 
4 | [Cl][Hg][Cl] [HgCl2] |  |  |  |  |  |  |  | 2 | 1 to 100
